Test results published in patent US20250204525A1, “ANTIMICROBIAL COMPOSITIONS” (Curie Co. Inc., priority 2023, published 2025).

System: bacterial pool of E. coli, S. aureus, and P. aeruginosa
Test: Antibacterial challenge testing of foaming hand soap (Example 2A)
Type: cell-based
Experimental: For antibacterial challenge testing, one vial each of E. coli, S. aureus, and P. aeruginosa was rehydrated in 1 mL peptone buffer. The concentrations of the cell suspensions were determined based on the Certificates of Analysis accompanying each bacteria vial, and the suspensions were combined and diluted in BPDB to make a 3×10^8 CFU/mL bacterial pool composed of 1×10^8 CFU/mL of each of E. coli, S. aureus, and P. aeruginosa at a final volume of 1 mL. For antifungal challenge testing, one vial of C. albicans was rehydrated in 1 mL peptone buffer. The concentration of the cell suspension was determined based on the Certificate of Analysis accompanying the vial of yeast. The resuspended cells were diluted in BPDB to 3×10^7 CFU/mL at a final volume of 1 mL.
The enumeration of the microbial population in antibacterial and antifungal challenge testing was performed in the following manner. At day 0, a 3-mL sample was collected from each of the prepared formulations and inoculated with 0.03 mL of the bacterial pool to obtain a final inoculum of 3×10^6 CFU/mL. The inoculated samples were maintained under the same conditions from day 0 to day 7. At each analysis timepoint, the inoculated samples were subjected to 10-fold serial dilutions in BPDB to obtain diluted samples such that 25-250 colonies were estimated to be yielded from 0.1 mL of the diluted sample plated on a tryptic soy agar petri dish containing Polysorbate 80 and Lecithin. The petri dishes were incubated at 31.5+/−1° C. for 24 to 48 hours. The petri dishes were then removed from the incubator and the colonies were counted and multiplied by their corresponding dilution factors to determine the bacterial concentrations (in CFU/mL) of the samples. At day 2 and day 7 post-inoculation, the serial dilutions, plating, and colony counting were repeated to monitor the changes in bacterial population.

[1] = foaming hand soap pH 6.5, sodium benzoate 0.5% alone
[2] = foaming hand soap pH 6.5, sodium benzoate 0.5% alone, listed as sodium benzoate
[3] = foaming hand soap pH 7.0, sodium benzoate 1% alone
[4] = foaming hand soap pH 7.0, sodium benzoate 1% alone, listed as sodium benzoate
[5] = foaming hand soap pH 7.5, sodium benzoate 1% alone
[6] = foaming hand soap pH 8.0, sodium benzoate 1% alone

SMILES: O=C([O-])c1ccccc1.[Na+] [Sodium Benzoate, Sodium benzoate]
- Day 2 log reduction in CFU/mL compared to Day 0 [1]: 0.84 log CFU/mL
- Day 2 log reduction in CFU/mL compared to Day 0 [2]: Modest reductions
- Day 7 log reduction in CFU/mL compared to Day 0 [1]: −1.25 log CFU/mL
- Day 7 log reduction in CFU/mL compared to Day 0 [2]: no reduction
- Day 2 log reduction in CFU/mL compared to Day 0 [3]: 0.88 log CFU/mL
- Day 2 log reduction in CFU/mL compared to Day 0 [4]: Modest reductions
- Day 7 log reduction in CFU/mL compared to Day 0 [3]: −1.39 log CFU/mL
- Day 7 log reduction in CFU/mL compared to Day 0 [4]: no reduction
- Day 2 log reduction in CFU/mL compared to Day 0 [5]: −0.62 log CFU/mL
- Day 7 log reduction in CFU/mL compared to Day 0 [5]: −1.23 log CFU/mL
- Day 7 log reduction in CFU/mL compared to Day 0 (foaming hand soap pH 7.5, sodium benzoate 1% alone, listed as sodium benzoate): no reduction
- Day 2 log reduction in CFU/mL compared to Day 0 [6]: −0.90 log CFU/mL
- Day 7 log reduction in CFU/mL compared to Day 0 [6]: −0.91 log CFU/mL
- Day 7 log reduction in CFU/mL compared to Day 0 (foaming hand soap pH 8.0, sodium benzoate 1% alone, listed as sodium benzoate): no reduction
